Experimental data published in patent publication US6407091B1, “β-lactamase inhibiting compounds” (Research Corporation Technologies, Inc., priority 1999, dated 2002).
Counter-ions that a name gives are not always drawn. Like-named read-outs stand apart in the source and are kept apart here.

Tests used:
[1] = target: Class C β-lactamase of Enterobacter cloacae P-99 (Enterobacter cloacae, UniProt P05364); test: IC50 for inhibition of Class C β-lactamase of Enterobacter cloacae P-99 (nitrocefin hydrolysis); format: biochemical
Sequence of Class C β-lactamase of Enterobacter cloacae P-99 (P05364 21-381): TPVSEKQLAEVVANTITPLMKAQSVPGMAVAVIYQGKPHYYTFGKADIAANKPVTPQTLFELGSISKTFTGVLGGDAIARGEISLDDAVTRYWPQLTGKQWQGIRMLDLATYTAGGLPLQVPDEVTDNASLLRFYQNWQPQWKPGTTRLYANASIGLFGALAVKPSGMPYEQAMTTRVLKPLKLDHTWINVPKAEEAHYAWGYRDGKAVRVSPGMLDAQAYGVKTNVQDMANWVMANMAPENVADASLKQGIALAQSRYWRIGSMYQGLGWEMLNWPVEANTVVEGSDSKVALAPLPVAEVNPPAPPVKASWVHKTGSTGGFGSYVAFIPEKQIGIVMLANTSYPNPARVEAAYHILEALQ
Experimental: (§1) Representative compounds of formula I were evaluated as inhibitors of the Class C β-lactamase of Enterobacter cloacae P-99, a cephalosporinase, and TEM-1, a penicillinase, by relative IC50 analysis. The IC50 value represents the concentration of inhibitor required to effect a 50% loss of activity of free enzyme. The IC50 value of each compound was determined as follows. Following a 10 minute incubation of a dilute solution of enzyme (2.56 nM) and inhibitor (<0.64 mM), a […] of this incubation mixture was then further diluted into 1 mL nitrocefin solution, and the rate of hydrolysis was measured during a 1 minute period by monitoring the absorbance of nitrocefin as a function of time.

TEM-1, a penicillinase = TEM-1, a penicillinase (Escherichia coli, UniProt P62593); test: IC50 for inhibition of TEM-1 β-lactamase (nitrocefin hydrolysis); format: biochemical; conditions: read-out: IC50 Values for Inhibition of β-lactamase Derived from TEM-1
Sequence of TEM-1, a penicillinase (P62593 24-286 limits assumed): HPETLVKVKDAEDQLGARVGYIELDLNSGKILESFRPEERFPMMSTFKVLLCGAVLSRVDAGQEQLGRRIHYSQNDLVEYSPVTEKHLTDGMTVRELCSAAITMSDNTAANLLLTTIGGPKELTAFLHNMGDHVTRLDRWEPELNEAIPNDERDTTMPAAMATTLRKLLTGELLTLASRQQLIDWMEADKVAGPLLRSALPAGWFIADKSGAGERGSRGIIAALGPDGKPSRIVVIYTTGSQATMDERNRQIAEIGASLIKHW
Experimental: as §1

[2] = read-out: IC50 Values for Inhibition of β-lactamase Derived from P-99
[3] = Table 1, 10 minute incubation of enzyme (2.56 nM) and inhibitor, nitrocefin hydrolysis, relative to tazobactam standard, read-out: IC50 Values for Inhibition of β-lactamase Derived from P-99
[4] = Table 1, 10 minute incubation of enzyme (2.56 nM) and inhibitor, nitrocefin hydrolysis, relative to tazobactam standard
[5] = Table 2, compounds of formula IV, procedure similar to Table 1
[6] = Table 2, compounds of formula IV, procedure similar to Table 1, read-out: IC50 Values for Inhibition of β-lactamase Derived from P-99

## C=C1C(COC(C)=O)=C(C(=O)O)N2C(=O)C(=Cc3ccccn3)C2S1(=O)=O (stereo not shown) [Compound 6a, Sodium Salt of 7-[(Z)-(2′-Pyridyl)methylene]-2-(exomethylidene)cephalosporanic Acid Sulfone]
[1]
  IC50: 0.165 µM

## C=C1C(COC(C)=O)=C(C(=O)O)N2C(=O)C(=CC(=O)OC(C)(C)C)C2S1(=O)=O (stereo not shown) [Compound 6b, Sodium Salt of 7-[(Z)-(tert-Butoxycarbonyl)methylene]-2-(exomethylidene)cephalosporinate Sulfone]
[1]; [2]
  IC50: 1.55 µM

## C=C1C(C)=C(C(=O)O)N2C(=O)C(=Cc3ccccn3)C2S1(=O)=O (stereo not shown) [Compound 6c, Sodium Salt of 7-((Z)-(2″-Pyridinyl)methylene]-3′-desacetoxy-2-(exomethylidene)cephalosporinate Sulfone]
[1]; [2]
  IC50: 0.039 µM

## C=C1C(C)=C(C(=O)O)N2C(=O)C(=CC(=O)OC(C)(C)C)C2S1(=O)=O (stereo not shown) [Compound 6d, Sodium Salt of 7-[(Z)-(tert-Butoxycarbonyl)methylene]-3′-desacetoxy-2(exomethylidene)cephalosporinate Sulfone]
[1]; [2]
  IC50: 48.6 µM

## C=C1C(CSc2nnnn2C)=C(C(=O)O)N2C(=O)C(=CC(=O)OC(C)(C)C)C2S1(=O)=O (stereo not shown) [Compound 6f, Sodium Salt of Benzhydryl 7-[(Z)-(tert-Butylcarboxy)methylene]-3′-desacetoxy-2-exomethylidene-3′-[1″-methyl-1″H-tetrazol-5″-yl)thio]cephalosporinate Sulfone]
[1]; [2]
  IC50: 2.38 µM

## C=C1C(COC(C)=O)=C(C(=O)O)N2C(=O)/C(=C/C(=O)O)C2S1(=O)=O (stereo not shown) [Compound 6h, Disodium Salt of 7-[(Z)-(Carboxy)methylene]-2-(exomethylidene)-cephalosporinate Sulfone]
[1]; [3]
  IC50: 2.49 µM
TEM-1, a penicillinase; [4]
  IC50: 498 µM

## C=C1C(C)=C(C(=O)O)N2C(=O)/C(=C/C(=O)O)C2S1(=O)=O (stereo not drawn) [Compound 6i, Disodium Salt 7-[(Z)(Carboxy)methylene]-3′-desacetoxy-2-(exo-methylidene)cephalosporinate Sulfone]
[1]; [3]
  IC50: 36.8 µM
TEM-1, a penicillinase; [4]
  IC50: 277 µM

## N#C/C=C/C1=C(C(=O)O)N2C(=O)/C(=C/c3ccccn3)C2S(=O)(=O)C1 (stereo not shown) [Compound 13a, Sodium 3-[2′E-(Cyanoethenyl)]-1,1-dioxo-7Z-[(2″-pyridyl)methylidene]-3-cephem-4-carboxylate]
[1]
  IC50: 0.01 µM
TEM-1, a penicillinase; [5]
  IC50: 2.7 µM

## COC(=O)/C=C/C1=C(C(=O)O)N2C(=O)/C(=C/c3ccccn3)C2S(=O)(=O)C1 (stereo not shown) [Compound 13b, Sodium 1,1-Dioxo-3-[2′E-(methoxycarbonylethenyl)]-7Z-[(2″-pyridyl)methylidene]-3-cephem-4-carboxylate]
[1]
  IC50: 0.2 µM
TEM-1, a penicillinase; [5]
  IC50: 0.02 µM

## O=C(O)C1=C(/C=C/c2cccc[n+]2[O-])CS(=O)(=O)C2/C(=C\c3ccccn3)C(=O)N12 (stereo not shown) [Compound 13c, Sodium 1,1-Dioxo-3-{2′E-[2″-(pyridin-N-oxide)ethenyl]}-7Z-[(2′″-pyridyl)methylidene]-3-cephem-4-carboxylate]
[1]; [6]
  IC50: 0.6 µM
TEM-1, a penicillinase; [5]
  IC50: 0.006 µM

## CC(C)(C)OC(=O)/C=C/C1=C(C(=O)O)N2C(=O)/C(=C/c3ccccn3)C2S(=O)(=O)C1 (stereo not shown) [Compound 13e, Sodium 1,1-Dioxo-3-[2′E-(t-butoxycarbonylethenyl)]-7Z-[(2″-pyridyl)methylidene]-3-cephem-4-carboxylate]
[1]; [6]
  IC50: 1.48 µM

## COC(=O)/C(Cl)=C/C1=C(C(=O)O)N2C(=O)/C(=C/c3ccccn3)C2S(=O)(=O)C1 (stereo not shown) [Compound 13f]
[1]; [6]
  IC50: 0.2 µM
TEM-1, a penicillinase; [5]
  IC50: 0.02 µM

## O=C(O)/C=C/C1=C(C(=O)O)N2C(=O)/C(=C/c3ccccn3)C2S(=O)(=O)C1 (stereo not shown) [Compound 13g, Disodium 3-[2′E-Carboxyethenyl]-1,1-dioxo-7Z-[(2″-pyridyl)methylidene]-3-cephem-4-carboxylate]
[1]; [6]
  IC50: 0.31 µM
TEM-1, a penicillinase; [5]
  IC50: 2.52 µM

## N#CC1=C(C(=O)O)N2C(=O)/C(=C/c3ccccn3)C2S(=O)(=O)C1 (stereo not shown) [Compound 19, Sodium 1,1-Dioxo-3-cyano-7Z-[(2′-pyridyl)methylidene]-3-cephem-4-carboxylate]
[1]
  IC50: 0.029 µM
TEM-1, a penicillinase; [5]
  IC50: 2.34 µM

## CC(=O)OCC1=C(C(=O)O)N2C(=O)C(=Cc3ccccn3)C2S(=O)(=O)C1 (stereo not shown) [II: R1=2-pyr, R3=CH2OAc, reference compound]
[1]
  IC50: 1.35 µM
TEM-1, a penicillinase
  IC50: 14.4 µM

## CC1=C(C(=O)O)N2C(=O)/C(=C/c3ccccn3)C2S(=O)(=O)C1 (stereo not shown) [II: R1=2-pyr, R3=CH3, reference compound]
[1]
  IC50: 6.1 µM
TEM-1, a penicillinase
  IC50: 377 µM

## Cn1nnnc1SCC1=C(C(=O)O)N2C(=O)C(=CC(=O)OC(C)(C)C)C2S(=O)(=O)C1 (stereo not shown) [II: R1=CO2-t-Bu, R3=CH2S(C2N4H3), reference compound]
[1]
  IC50: 112 µM
TEM-1, a penicillinase
  IC50: 0.123 µM

## CC1=C(C(=O)O)N2C(=O)C(=CC(=O)OC(C)(C)C)C2S(=O)(=O)C1 (stereo not shown) [II: R1=CO2-t-Bu, R3=CH3, reference compound]
[1]
  IC50: 199 µM
TEM-1, a penicillinase
  IC50: 111 µM

## C=C1C(=O)N2C(C(=O)O)=C(COC(C)=O)C(=C)S(=O)(=O)C12 (stereo not shown) [III: R3=CH2OAc, reference compound]
[1]
  IC50: 315 µM
TEM-1, a penicillinase
  IC50: > 2000 µM

## Sodium [2-1(Bisthiomethyl)exomethylene]-7-[(Z)-(2″-pyridinyl)methylene]-3′-desacetoxycephalosporinate [Compound 6g]
[1]; [3]
  IC50: 0.51 µM
TEM-1, a penicillinase; [4]
  IC50: 173 µM
